Laboratory results reported in patent US20030144347A1, “Method for treating autoimmune disease” (priority 2001, published 2003).

Experiments:
[1] = test system: patient suffering from ulcerative colitis; assay: Case reports: patients suffering from ulcerative colitis; assay type: in vivo, human; conditions: Example 9
Protocol: A patient suffering from ulcerative colitis began taking 25 mg per day of topiramate, with dosage increases of 25 mg/day each week. […] By the end of nine months, the patient's weight was decreased to 270 lbs from 315 lbs. Their disease was no longer affecting their ability to go to or stay at work. Their colonoscopy exam was negative for the first time since the onset of their illness.

[2] = test system: patient suffering from systemic lupus erythematosis; assay: Case report: patient suffering from systemic lupus erythematosis; assay type: in vivo, human; conditions: Example 11
Protocol: A young adolescent patient suffering from systemic lupus erythematosis and taking 30 mg bid of prednisone began taking 15 mg per day of topiramate. […] The prednisone was reduced to 25 mg per day after 4 weeks and to 10 mg after 6 weeks. This benefit has continued for over 6 months.

[3] = test system: patient suffering from psoriasis; assay: Case reports: patients suffering from psoriasis; assay type: in vivo, human
Protocol: A patient suffering from psoriasis began taking 15 mg per day of topiramate for seven days, which was increased by 15 mg per day until reaching a dose of 45 mg/day in equally divided doses.

[4] = test system: patient suffering from multiple autoimmune diseases; assay: Case report: patient suffering from multiple autoimmune diseases; assay type: in vivo, human; conditions: Example 15
Protocol: A patient suffering from multiple autoimmune diseases was treated with topiramate. The patient was suffering from systemic lupus erythematosis (SLE) acquired anemia of gamma globulins, rheumatoid arthritis, Renaud's phenomena and Hashimotos thyroiditis. The patient was also taking medrol at doses of 32 mg per day and up to 132 mg per day and 25 mg weekly injections of methotrexate.
The topiramate treatment was begun at 15 mg per day and increased weekly by 15 mg to […] and then stabilized at 50 mg per day after two months. […] The frequency and intensity of their iritis, which was occurring every one to two months and lasting for 1 to 2 weeks, described as an “incredible pain relieved only by wrapping my eyes and head with a black towel”, decreased. It has occurred only once since using Topamax® when their parent was dying. […] The patient drove to their last appointment, which is the first time they have been able to do so in five years. They have now had consistent benefits for more than 6 months.

[5] = test system: patient with eosinophilic gastroenteritis; assay: Case report: patient with recurrent eosinophilic gastroenteritis; assay type: in vivo, human; conditions: Example 20; 7.5 mg every three days then 7.5 mg every other day; withdrawn from prednisone
Protocol: A patient presented depressed related to a 15 pound weight gain following a recurrent of eosinophilic gastroenteritis treated with 20 mg of prednisone. This was their third bout in two years, all confirmed by a stomach biopsy. Each recurrence began between four and five months after being withdrawn from steroids, which had caused physical side effects and suspiciousness. A trial of Topamax 7.5 mg every three days and then 7.5 mg every other day was begun.

[6] = test system: patient suffering from ulcerative colitis; assay: Case reports: patients suffering from ulcerative colitis; assay type: in vivo, human
[7] = test system: animal model of kindled epilepsy; conditions: cited from earlier work

## CC1(C)O[C@@H]2[C@@H](CO[C@@]3(COS(N)(=O)=O)OC(C)(C)O[C@@H]23)O1 [topiramate, 2,3:4,5-bis-O-(1-methylethylidence)-β-D-fructopyranose sulfamate]
[1]
  colonoscopy exam: negative
[1]; 50 mg twice a day
  symptoms: decreased intensity of symptoms
[1]; 75 mg twice a day
  symptoms: decreased frequency of symptoms
[1]; 100 mg twice a day, asakol dosage reduced
  diarrhea: diarrhea had stopped
[2]; 15 mg in the morning and 30 mg every evening
  clinical change: further improvement
[2]; 15 mg per day, after seven days
  clinical change: minimal change
[2]; 15 mg twice a day
  carbohydrate craving: markedly reduced
  facial and body rash, headaches, joint pain: began to subside, headaches disappeared and joint pain greatly diminished
[2]; 15 mg twice a day, over the next two weeks
  energy and mood: striking improvement in energy and mood
[2]; prednisone reduced to 10 mg
  duration of benefit: over 6 months
[3]; Example 12
  time at which PASI decrease was maintained: 16 weeks
[3]; Example 12, 25 mg bid, within 8 weeks, from 12.2
  psoriasis area and severity index (PASI): 5.4
[3]; Example 12, after 10 days at 45 mg
  lesions: began to decrease
[3]; Example 16, 15 mg every other day
  lesions: minimal improvement
[3]; Example 16, 15 mg per day for 7 days
  lesions: some improvement
[3]; Example 16, 30 mg/day in divided dosages
  lesions: began to get worse
[3]; Example 16, 45 mg/day in divided doses
  lesions: clear deterioration
[3]; Example 16, 60 mg per day
  lesions: new lesions were occurring
[3]; Example 16, within the first eight weeks, judged to be unchanged
  PASI: 29.1
[4]
  time without another episode of iritis: five
[4]; 50 mg per day
  frequency and intensity of iritis: decreased
[4]; despite cessation of methotrexate
  duration of consistent benefits: more than 6 months
[4]; up to 65 mg per day, stabilized at 50 mg per day, medrol reduced to 5 mg per day
  pain when walking: very significant decrease in pain when walking
[5]
  time without recurrence of symptoms: 19 months
[6]; Example 8, 7.5 mg per day
  duration of benefit: more than 16 weeks
[6]; Example 8, 7.5 mg per day, after 7 days
  mucous: decrease in mucous
[6]; Example 8, 7.5 mg per day, after two weeks
  mucous and bleeding: no mucous or bleeding
[6]; Example 8, 15 mg per day
  adverse effect: tired during the day
[6]; Example 8, 15 mg per day, after two weeks
  stools, bowel frequency, mucous: stools became darker with increase bowel frequency of movements and mucous
[6]; Example 8, resumed at 7.5 mg per day
  mucous, bowel movements, bleeding: decrease in mucous, bowel movements and bleeding
[6]; Example 10, 7.5 mg per day
  duration of benefit: 18 weeks
[6]; Example 10, 15 mg per day, within one week
  bowel frequency, bleeding and mucous: significant decrease in bowel frequency, bleeding and mucous
[6]; Example 10, dose increased to 30 and then to 45 mg per day
  bowel frequency, bleeding and mucous: reversal of benefits and then a further exacerbation of systems
[6]; Example 10, resumed at 7.5 mg per day
  bowel frequency, bleeding and mucous: significant decrease in frequency of bowel movement, bleeding and mucous
[7]
  seizures: effectively block seizures
